Molecules are shown by their SMILES.

The target in the assay is PI3Kalpha (Homo sapiens (Human), UniProt P42336). Conditions: read-out: IC50 PI3K.
PI3Kalpha, sequence (P42336 whole entry, looked up): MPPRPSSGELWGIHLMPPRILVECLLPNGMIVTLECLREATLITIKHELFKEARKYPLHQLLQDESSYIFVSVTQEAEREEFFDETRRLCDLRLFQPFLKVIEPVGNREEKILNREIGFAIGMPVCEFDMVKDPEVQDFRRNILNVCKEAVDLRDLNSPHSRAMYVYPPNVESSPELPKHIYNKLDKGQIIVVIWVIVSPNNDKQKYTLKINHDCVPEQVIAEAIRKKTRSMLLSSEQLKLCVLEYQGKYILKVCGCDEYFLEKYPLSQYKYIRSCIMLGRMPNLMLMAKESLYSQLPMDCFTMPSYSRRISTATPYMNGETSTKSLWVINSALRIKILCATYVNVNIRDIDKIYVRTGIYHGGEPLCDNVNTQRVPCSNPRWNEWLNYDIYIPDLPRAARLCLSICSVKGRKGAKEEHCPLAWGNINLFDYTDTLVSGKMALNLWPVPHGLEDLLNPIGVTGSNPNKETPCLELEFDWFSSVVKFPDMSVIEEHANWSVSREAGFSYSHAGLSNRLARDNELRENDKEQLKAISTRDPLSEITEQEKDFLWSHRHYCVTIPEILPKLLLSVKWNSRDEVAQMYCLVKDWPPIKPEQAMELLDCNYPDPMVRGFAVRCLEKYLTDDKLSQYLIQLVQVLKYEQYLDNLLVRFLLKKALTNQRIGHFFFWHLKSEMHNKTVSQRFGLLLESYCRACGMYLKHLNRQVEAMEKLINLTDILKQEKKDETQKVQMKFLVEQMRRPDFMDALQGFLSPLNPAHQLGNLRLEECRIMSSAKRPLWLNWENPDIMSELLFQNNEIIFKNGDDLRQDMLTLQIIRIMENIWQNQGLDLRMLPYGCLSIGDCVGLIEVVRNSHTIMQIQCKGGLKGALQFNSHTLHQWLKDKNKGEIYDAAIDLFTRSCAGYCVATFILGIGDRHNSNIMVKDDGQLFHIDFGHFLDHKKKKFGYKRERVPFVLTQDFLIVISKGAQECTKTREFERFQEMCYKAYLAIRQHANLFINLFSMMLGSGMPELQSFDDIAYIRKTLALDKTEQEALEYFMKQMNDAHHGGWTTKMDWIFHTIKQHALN
Procedure: Plot the concentration of each compound versus the emission ratio. […] Determination of IC50 values can be obtained by curve fitting (sigmoidal dose response, variable slope) using Prism software from GraphPad).
Method Type: Filter-Binding-Assay
Compounds are serially diluted in assay buffer+6% DMSO and 10 μl of each dilution is added per well of a 96-well plate (compounds are tested in duplicates) and mixed with 30 μl of the lipid vesicles containing PDGFR-Peptide (0.5 μM final) and PI3K alpha (25 ng/well final). The mixture is then incubated for 20 minutes at room temperature. Subsequently, 20 μl of assay buffer containing 3 μM cold ATP and 0.5 μCi/20 μl 33P-ATP are added. The plates are then incubated at room temperature for 120 minutes (shaking with 300 rpm). The reaction mix is transferred onto filter plates using “filtermate harvester” from Packard: filter plates are rinsed with PBS, then the reaction mix is filtered onto the filter plate, washed 5 times with PBS and are allowed to dry for 30-60 minutes at 50° C.
As positive control serve wells containing vehicle controls (1% DMSO in assay buffer), showing non-inhibited kinase activity (high values). Wells containing assay buffer instead of enzyme can serve as control for background activity (low values).
Calculate IC50 values using the Smiley program (based on GrapPad Prism)
For orientation: IC50 means the point on the concentration scale where inhibition reaches its midpoint. On to `CCc1ncnc(-c2ccc(C(=O)N3CCN(C4CCCC4)CC3)c(F)c2)c1C#Cc1ccc(N)nc1` [Example D-96], for which the IC50 turned out to be 0.151 µM.
Regarding `CCc1ncnc(-c2ccc(C(=O)N3CCN(Cc4ccccc4)CC3)c(F)c2)c1C#Cc1ccc(N)nc1` [Example D-97], the IC50 was determined as 0.476 µM.
For `CCc1ncnc(-c2ccc(C(=O)N3CCN(c4ccccc4)CC3)c(F)c2)c1C#Cc1ccc(N)nc1` [Example D-98] the value was 0.199 µM; for `CCc1ncnc(-c2ccc(C(=O)N3CCN(CCN(C)C)CC3)c(F)c2)c1C#Cc1ccc(N)nc1` [Example D-99], 0.452 µM.
Regarding `CCc1ncnc(-c2ccc(C(=O)N3CCC(N(C)C)CC3)c(F)c2)c1C#Cc1ccc(N)nc1` [Example D-100], the IC50 is 0.347 µM.
`CCc1ncnc(-c2ccc(C(=O)N3CCC(O)(CN(C)C)CC3)c(F)c2)c1C#Cc1ccc(N)nc1` [Example D-103]: the IC50 is 0.47 µM.
As for `CCc1ncnc(-c2ccc(C(=O)N3CCC(CCO)CC3)c(F)c2)c1C#Cc1ccc(N)nc1` [Example D-104], the IC50 was determined as 0.125 µM.
On to `CCc1ncnc(-c2ccc(C(=O)N3CCN(CC4CC4)CC3)c(F)c2)c1C#Cc1ccc(N)nc1` [Example D-106], for which the IC50 turned out to be 0.249 µM.
For `CCc1ncnc(-c2ccc(C(=O)N3CCC(N4CCC(C)CC4)C3)c(F)c2)c1C#Cc1ccc(N)nc1` [Example D-108] the value was 0.313 µM; for `CCc1ncnc(-c2ccc(C(=O)N3CCCC(O)C3)c(F)c2)c1C#Cc1ccc(N)nc1` [Example D-110], 0.064 µM; for `CCc1ncnc(-c2ccc(C(=O)N3CCC(N4CCCC4)CC3)c(F)c2)c1C#Cc1ccc(N)nc1` [Example D-112], 0.323 µM.
On to `CCc1ncnc(-c2ccc(C(=O)N3CCNCC3)c(F)c2)c1C#Cc1ccc(N)nc1` [Example D-113], for which the IC50 amounted to 0.057 µM.
To `CCc1ncnc(-c2ccc(C(=O)N3CCN(CC4CCCN(C)C4)CC3)c(F)c2)c1C#Cc1ccc(N)nc1` [Example D-114] belongs 0.188 µM; to `CCOC(=O)N1CCN(C(=O)c2ccc(-c3ncnc(CC)c3C#Cc3ccc(N)nc3)cc2F)CC1` [Example D-116], 0.129 µM; to `CCc1ncnc(-c2ccc(C(=O)N3CCN(/C(=N\C#N)NC)CC3)c(F)c2)c1C#Cc1ccc(N)nc1` [Example D-117], 0.027 µM.
As for `CCc1ncnc(-c2ccc(C(=O)N3CCCN(C)CC3)c(F)c2)c1C#Cc1ccc(N)nc1` [Example D-118], the IC50 was 0.404 µM.
Regarding `CCc1ncnc(-c2ccc(C(=O)N(C)CCN3CCCC3=O)c(F)c2)c1C#Cc1ccc(N)nc1` [Example D-119], the IC50 is 0.055 µM.
As for `CCc1ncnc(-c2ccc(C(=O)N3CCN(C4CC4)CC3)c(F)c2)c1C#Cc1ccc(N)nc1` [Example D-121], the IC50 is 0.127 µM.
As for `CCc1ncnc(-c2ccc(C(=O)N3CCN(C(C)C)CC3)c(F)c2)c1C#Cc1ccc(N)nc1` [Example D-122], the IC50 stood at 0.198 µM.
With `CCc1ncnc(-c2ccc(C(=O)N3CCC(O)(C(F)(F)F)CC3)c(F)c2)c1C#Cc1ccc(N)nc1` [Example D-123], the IC50 was found to be 0.324 µM.
To `CCc1ncnc(-c2ccc(C(=O)N3CCC(O)(C(C)C)CC3)c(F)c2)c1C#Cc1ccc(N)nc1` [Example D-124] belongs 0.228 µM; to `CCc1ncnc(-c2ccc(C(=O)N3CCC(O)(CC)CC3)c(F)c2)c1C#Cc1ccc(N)nc1` [Example D-125], 0.269 µM; to `CCc1ncnc(-c2ccc(C(=O)N3CCC(O)(c4ccccc4)CC3)c(F)c2)c1C#Cc1ccc(N)nc1` [Example D-126], 0.142 µM.
For the molecule `CCc1ncnc(-c2ccc(C(=O)N3CCN(C)C(C)(C)C3)c(F)c2)c1C#Cc1ccc(N)nc1` [Example D-127], the IC50 turned out to be 0.344 µM.
Consider `CCc1ncnc(-c2ccc(C(=O)N3CCN(C)C(C)C3)c(F)c2)c1C#Cc1ccc(N)nc1` [Example D-128], for which the IC50 is 0.157 µM.
For `CCc1ncnc(-c2ccc(C(=O)N3CCN(C(C)CC)CC3)c(F)c2)c1C#Cc1ccc(N)nc1` [Example D-129] the value was 0.392 µM; for `CCc1ncnc(-c2ccc(C(=O)N3CCN(C(CC)CC)CC3)c(F)c2)c1C#Cc1ccc(N)nc1` [Example D-130], 0.384 µM; for `CCc1ncnc(-c2ccc(C(=O)N3CCC[C@@H]3CO)c(F)c2)c1C#Cc1ccc(N)nc1` [Example D-131], 0.119 µM.
For the molecule `CCc1ncnc(-c2ccc(C(=O)N3CC(C)NC(C)C3)c(F)c2)c1C#Cc1ccc(N)nc1` [Example D-132], the half-maximal inhibitory concentration (IC50) came out at 0.184 µM.
Take `CCc1ncnc(-c2ccc(C(=O)N3CCN(C)C(=O)C3)c(F)c2)c1C#Cc1ccc(N)nc1` [Example D-133]: the IC50 came out at 0.115 µM.
To `CCc1ncnc(-c2ccc(C(=O)N3CCC[C@H]3CO)c(F)c2)c1C#Cc1ccc(N)nc1` [Example D-135] belongs 0.136 µM.
On to `CCc1ncnc(-c2ccc(C(=O)N3CCN(CC4CC4)CC3)c(Cl)c2)c1C#Cc1ccc(N)nc1` [Example D-136], for which the IC50 was found to be 0.228 µM.
As to `CCc1ncnc(-c2ccc(C(=O)N3CCC(C4CCN(C)CC4)CC3)c(Cl)c2)c1C#Cc1ccc(N)nc1` [Example D-139], the 50% inhibitory concentration (IC50) was determined as 0.374 µM.
For the molecule `CCc1ncnc(-c2ccc(C(=O)NC3CCCN(C)C3)c(Cl)c2)c1C#Cc1ccc(N)nc1` [Example D-140], the 50% inhibitory concentration (IC50) turned out to be 0.51 µM.
For `CCc1ncnc(-c2ccc(C(=O)N3CCC(OC)CC3)c(Cl)c2)c1C#Cc1ccc(N)nc1` [Example D-142], the IC50 turned out to be 0.094 µM.
As for `CCc1ncnc(-c2ccc(C(=O)N3CCC(C)(O)CC3)c(Cl)c2)c1C#Cc1ccc(N)nc1` [Example D-143], the IC50 is 0.077 µM.
On to `CCc1ncnc(-c2ccc(C(=O)N3CC[C@H](O)C3)c(Cl)c2)c1C#Cc1ccc(N)nc1` [Example D-145], for which the IC50 amounted to 0.058 µM.
Regarding `CCc1ncnc(-c2ccc(C(=O)N3CC[C@@H](O)C3)c(Cl)c2)c1C#Cc1ccc(N)nc1` [Example D-146], the IC50 was found to be 0.066 µM.
In the case of `CCc1ncnc(-c2ccc(C(=O)N3CCCC(O)C3)c(Cl)c2)c1C#Cc1ccc(N)nc1` [Example D-147], the IC50 is 0.065 µM.
With `CCc1ncnc(-c2ccc(C(=O)N3CCNCC3)c(Cl)c2)c1C#Cc1ccc(N)nc1` [Example D-152], the IC50 is 0.164 µM.
With `CCc1ncnc(-c2ccc(C(=O)N(C)O)c(Cl)c2)c1C#Cc1ccc(N)nc1` [Example D-153], the IC50 came to 0.067 µM.
To `CCc1ncnc(-c2ccc(C(=O)N3CCCN(C)CC3)c(Cl)c2)c1C#Cc1ccc(N)nc1` [Example D-154] belongs 0.405 µM.
For `CCc1ncnc(-c2ccc(C(=O)N3CCN(c4ccncc4)CC3)c(Cl)c2)c1C#Cc1ccc(N)nc1` [Example D-155] the value was 0.209 µM; for `CCc1ncnc(-c2ccc(C(=O)N3CCCOCC3)c(Cl)c2)c1C#Cc1ccc(N)nc1` [Example D-157], 0.065 µM; for `CCc1ncnc(-c2ccc(C(=O)NCC3(C)COC3)c(Cl)c2)c1C#Cc1ccc(N)nc1` [Example D-159], 0.066 µM.
For the molecule `CCc1ncnc(-c2ccc(C(=O)N3CCN(Cc4ccccc4)CC3)c(Cl)c2)c1C#Cc1ccc(N)nc1` [Example D-160], the IC50 is 0.658 µM.
For the molecule `Cc1ncnc(-c2ccc(C(=O)N3CCN(c4ccccc4)CC3)cc2)c1C#Cc1ccc(N)nc1` [Example D-188], the IC50 was 0.067 µM.
For `COCCN1CCN(C(=O)c2ccc(-c3ncnc(C)c3C#Cc3ccc(N)nc3)cc2)CC1` [Example D-189] the value was 0.118 µM.
As for `CCCCN1CCN(C(=O)c2ccc(-c3ncnc(C)c3C#Cc3ccc(N)nc3)cc2)CC1` [Example D-190], the IC50 was 0.153 µM.
In the case of `Cc1ncnc(-c2ccc(C(=O)N3CCN4CCCCC4C3)cc2)c1C#Cc1ccc(N)nc1` [Example D-191], the IC50 worked out at 0.081 µM.
For the molecule `Cc1ncnc(-c2ccc(C(=O)N3CCN(C4CCS(=O)(=O)C4)CC3)cc2)c1C#Cc1ccc(N)nc1` [Example D-192], the IC50 was determined as 0.134 µM.
For `Cc1ncnc(-c2ccc(C(=O)N3CCN(C4CCOCC4)CC3)cc2)c1C#Cc1ccc(N)nc1` [Example D-193] the value was 0.065 µM.
Take `Cc1ncnc(-c2ccc(C(=O)N3CCN(CCO)CC3)cc2)c1C#Cc1ccc(N)nc1` [Example D-194]: the IC50 worked out at 0.106 µM.
Consider `CCc1ncnc(-c2ccc(C(=O)NCC(O)CN(C)C)c(F)c2)c1C#Cc1ccc(N)nc1` [Example D-196], for which the IC50 stood at 0.292 µM.
With `CCc1ncnc(-c2ccc(C(=O)NC3CCCN(C)C3)c(F)c2)c1C#Cc1ccc(N)nc1` [Example D-197], the IC50 stood at 0.28 µM.
Turning to `CCc1ncnc(-c2ccc(C(=O)NC3CC(N4CCN(C)CC4)C3)c(F)c2)c1C#Cc1ccc(N)nc1` [Example D-198], the IC50 worked out at 0.203 µM.
With `CCc1ncnc(-c2ccc(C(=O)NC3CCN(C)C3)c(F)c2)c1C#Cc1ccc(N)nc1` [Example D-199], the IC50 was determined as 0.347 µM.
For `CCc1ncnc(-c2ccc(C(=O)NC[C@H]3CCCN3CC)c(F)c2)c1C#Cc1ccc(N)nc1` [Example D-200], the IC50 was determined as 0.566 µM.
To `CCc1ncnc(-c2ccc(C(=O)NC3CCN(CCOC)CC3)c(F)c2)c1C#Cc1ccc(N)nc1` [Example D-201] belongs 0.134 µM.
For `CCc1ncnc(-c2ccc(C(=O)NC3CC(C)(C)N(C)C(C)(C)C3)c(F)c2)c1C#Cc1ccc(N)nc1` [Example D-202] the value was 0.413 µM; for `CCc1ncnc(-c2ccc(C(=O)N3CC[C@H](O)C3)c(F)c2)c1C#Cc1ccc(N)nc1` [Example D-203], 0.057 µM.
`CCc1ncnc(-c2ccc(C(=O)N3CC[C@@H](O)C3)c(F)c2)c1C#Cc1ccc(N)nc1` [Example D-204]: the IC50 was 0.069 µM.
To `CCc1ncnc(-c2ccc(C(=O)NC3CCCN(C4CCN(C)CC4)C3)c(F)c2)c1C#Cc1ccc(N)nc1` [Example D-205] belongs 0.335 µM.
Regarding `CCc1ncnc(-c2ccc(C(=O)NC3CC(N4CCCCC4)C3)c(F)c2)c1C#Cc1ccc(N)nc1` [Example D-207], the IC50 came to 0.436 µM.
For `CCc1ncnc(-c2ccc(C(=O)NC3CC(N4CCC(N5CCCC5)CC4)C3)c(F)c2)c1C#Cc1ccc(N)nc1` [Example D-208], the IC50 was found to be 0.308 µM.
For `CCc1ncnc(-c2ccc(C(=O)NC3CCN(C4CCN(C)CC4)C3)c(F)c2)c1C#Cc1ccc(N)nc1` [Example D-210] the value was 0.37 µM; for `CCc1ncnc(-c2ccc(C(=O)NCCN3CCCC3=O)c(F)c2)c1C#Cc1ccc(N)nc1` [Example D-211], 0.046 µM.
